The target of one test is α-thrombin (Homo sapiens, UniProt P00734). The experiment in a line: Thrombin-induced clotting of purified fibrinogen. To be noted: preincubation with α-thrombin up to 60 minutes before fibrinogen. The format is biochemical. On the procedure:
Inhibition is reflected as an increase in the relative clotting time which is the ratio of the […]. The control clotting time in this assay is 16.2±0.78 sec.
The clotting time of fibrinogen following the addition of the thrombin/inhibitor complex was measured optically using the Coag-A-Mate XC automated coagulometer (General Diagnostics, Organon Technica, Oklahoma City, OK). […] Haemostas., 69:130-134 (1993).

The next test has as its target thrombin (Homo sapiens, UniProt P00734). To be noted: literature values; read-out: Ki (thrombin), reported; cited from earlier work.
Another test concerns Rat Venous Stasis Model. The experiment in a line: Venous stasis in rats (thromboplastin plus stasis, inferior vena cava). The format is in vivo. To be noted: for % Clot: mean ± S.E.M. The procedure: This is one of the most commonly used models in the evaluation of antithrombotic compounds. Hladovec, J. Thromb. […] Talbot, M. D., et. al., Thromb.
Male Harlan Sprague Dawley rats (420-450 g) were acclimated at least 72 hours prior to use. The animals were fasted for 12 hours prior to surgery with free access to water. The animals were anesthetized with a sodium pentobarbital (Nembutal) given intraperitoneally at a dose of 50 mg/kg body weight and placed on a isothermal pad to maintain body temperature. The level of anesthesia was monitored every 15 minutes by: neuro-response to a tail pinch, respiration and body core temperature. The desired depth of surgical anesthesia was maintained by administering subsequent doses (5 mg/kg) intravenously. The left femoral artery was catheterized with polyethylene tubing (PE50) using standard procedures for blood pressure monitoring and blood sampling. The left and right femoral veins were catheterized with PE50 tubing for delivery of anesthetic and test compounds respectively.
Blood pressure, heart rate, core temperature and respiration were monitored continuously.
The abdomen of the animals is opened by making a vertical midline incision followed by isolation of the IVC using dissection. The segment extends from below the renal to above the iliac vessels (about 2 cm in length). The peripheral blood vessels are tied off and a ligature is loosely placed at the distal and proximal ends of the isolated segment. Rabbit brain thromboplastin (RBT) (Sigma Chemical Co., St. Louis MO) is prepared by resuspending the contents of the vial with 2 mL of sterile saline pre-warmed to 37° C. At the end of the 30 minute infusion period, RBT is systemically administered as a bolus injection (1.5 mL/kg) via the femoral catheter. Stasis is induced within the isolated IVC segment by securing the proximal and distal ligature 10 sec following the administration of the RBT. Following a 30 minute period of stasis the tied off IVC segment is removed and the contents weighed. Clot formation was defined as %clot: [Weight of the isolated clot/(Weight of the intact segment-the weight of the empty segment)]×100. This method was used to correct for slight differences in segment size and fluid content.
Following termination of the experiment the animal was euthanized with a 120 mg/kg dose of Nembutal.

The next test has as its system washed human platelets. The experiment in a line: Thrombin-induced aggregation in washed human platelets. It is filed as cell-based. The procedure: Washed human platelets were prepared from freshly isolated venous blood obtained from normal, healthy volunteers who had not taken any medication which might affect platelet function, according to the procedure of Connolly, T. M. et al., J. Biol. Chem., 267:6893 (1992). Inhibitors, were added in a volume of 20 μL to 350 μL of prewarmed washed platelets in a siliconized glass cuvette (Chronolog Corp., Havertown, PA) followed by 10 μL of 0.25 M CaCl2. The rate and extent of aggregation were measured for 5-15 minutes by the change in light transmission in a stirred cuvette, following the addition of 20 μL of […] (final concentration 2 nM), using a Chronolog Whole Blood Aggregometer equipped with the Aggro/Link data acquisition system (Chronolog Corp., Hayertown, PA). The extent of inhibition was determined by measuring the change in the amplitude (extent) of the aggregation response compared to the control (uninhibited) response over the 1 minute period following the addition of thrombin.

Test [1] relates to FeCl3 Model of Thrombosis in Rats. The experiment in a line: Rat model of FeCl3-induced platelet-dependent arterial thrombosis. It is filed as in vivo. To be noted: for Incidence of Occlusion: occluded/total animals. From the text:
Kurz, K. D., Main, B. W., and Sandusky, G. E., Thromb. Res., 60:269-280 (1990). In this model a platelet-rich, occlusive thrombus is formed in a segment of the rat carotid artery treated with a fresh solution of FeCl3 absorbed to a piece of filter paper. The FeCl3 is thought to diffuse into the treated segment of artery and causes de-endothelialization resulting in thrombus formation. The effect of a test compound on the incidence of occlusive thrombus formation following the application of the FeCl3 is monitored by ultrasonic flowtometry and is used as the primary end point. The use of flowtometry is a modification of the original procedure in which thermal detection of clot formation was employed. Kurz, K. D., Main, B. W., and Sandusky, G. E., Thromb. Res., 60:269-280 (1990).
Male Harlan Sprague Sawley rats (420-450 g) were acclimated at least 72 hours prior to use and fasted for 12 hours prior to surgery with free access to water. The animals were prepared, anesthetized with Nembutal with catheters for blood pressure monitoring, drug and anesthesia delivery being implanted as described above. The left carotid artery was exposed and isolated by making a midline cervical incision followed by blunt dissection and spreading techniques to separate a 2 cm segment of the vessel from the carotid sheath. A silk suture is inserted under the proximal and distal ends of the isolated vessel to provide clearance for the placement of a ultrasonic flow probe (Transonic) around the proximal end of the vessel. The probe is then secured with a stationary arm.
The test compounds were administered as described above after placement of the flow probe and stabilization of the preparation for a period of 60 minutes prior to the thrombogenic stimulus. At t=0, a 3 mm diameter piece of filter paper (Whatman #3) soaked with 10 μL of a 35% solution of fresh FeCl3 (in water) was applied the segment of isolated carotid artery distal to the flow probe. Blood pressure, blood flow, heart rate, and respiration were monitored for 60 minutes.
The incidence of occlusion (defined as the attainment of zero blood flow) was recorded as the primary end point. Following the 60 minute observation period the flow probe was removed and the area cleared of all excess fluid. The distal and proximal sutures were tied off and arterial clamps placed on the far proximal and distal ends of the segment. The isolated segment was cut out, blotted dry on filter paper and weighed. The segment was re-weighed following removal of the clot and the difference recorded as total % clot (see above). Weights were recorded on only those segments which had detectable thrombus. Following the procedure the animals were euthanized as described above.

[2] abbreviates: 0.1 mg/kg i.v. bolus + 40 μg/kg/min i.v. infusion.

Broadly, the Ki is a measure of affinity in units of concentration, obtained from inhibition or displacement. As a reminder, the IC50 is the concentration needed to halve the response being measured. The low end stands for higher potency, the high end for lower potency. As to “(D--Phe)--Pro--Arg--Pro--(Gly4 --Asn--Gly--Asp--Phe--Glu--Glu--IIe--Pro--Glu--Glu--Tyr--Leu--OH [Compound 25]”, at α-thrombin, the “proteolytic inactivation by thrombin upon prolonged incubation” value was “sensitive to proteolytic degradation with re-emergence of thrombin activity”. The inhibitory constant (Ki) on thrombin is 2.56 nM. Besides, the “% Clot” value with Rat Venous Stasis Model (setting [2]) turned out to be 25.75 ± 3.71%; in the test with Rat Venous Stasis Model (0.1 mg/kg i.v. bolus + 60 μg/kg/min i.v. infusion) it was 26.50 ± 3.59%; in the test with Rat Venous Stasis Model (0.1 mg/kg i.v. bolus + 80 μg/kg/min i.v. infusion) it was 25.75 ± 0.41%; in test [1] (0.1 mg/kg i.v. bolus + 5 μg/kg/min i.v. infusion, mean ± S.E.M., segments with detectable thrombus), 70.1 ± 5.5%; in test [1] (0.1 mg/kg i.v. bolus + 10 μg/kg/min i.v. infusion, mean ± S.E.M., segments with detectable thrombus), 59.42 ± 4.34%; in test [1] (0.1 mg/kg i.v. bolus + 20 μg/kg/min i.v. infusion, mean ± S.E.M., segments with detectable thrombus), 45.3 ± 11.63%. In addition, the “% Clot” value in test [1] (setting [2]) was 0%. Besides, the “effect on venous thrombus formation induced by stasis and thromboplastin” value in the test on Rat Venous Stasis Model (summary in words) is “did not have any effect of thrombus formation”. Moreover, the “persistence of inhibition of aggregation over the 15 minute course of the assay” value with washed human platelets (20nM (compound 8), same or higher concentrations (Hirulog-1), FIG. 4) is on record as “did not cause sustained inhibition of the aggregation response”. For the same substance, it took 16 ± 3 nM to reach half-maximal inhibition in the test with washed human platelets (α-thrombin 2 nM, extent of aggregation over 1 minute after thrombin, mean ± standard deviation, three determinations) (IC50). Further, the “Incidence of Occlusion” value in test [1] (0.1 mg/kg i.v. bolus + 5 μg/kg/min i.v. infusion) is recorded as 3/3; in test [1] (0.1 mg/kg i.v. bolus + 10 μg/kg/min i.v. infusion) it was 5/6; in test [1] (0.1 mg/kg i.v. bolus + 20 μg/kg/min i.v. infusion), 5/6; in test [1] (setting [2]), 0/6.

The record behind these values is patent publication US5656600A, “α-ketoamide derivatives as inhibitors of thrombosis” (Corvas International, Inc., priority 1993, dated 1997).
